The record followed here is US20230271954A1 (Gossamer Bio Services, Inc., priority 2020, published 2023).

The IC50 is the concentration needed to halve the response being measured.

The target in one test is DGKα (Homo sapiens, UniProt P23743). Nature of the test: DGKα biochemical assay (ADP-Glo). To be noted: read-out: DGK α IC50. As for the experimental part:
(§1) Compounds of the present invention were prepared into 10 mM DMSO solution and 10 nL of stock was transferred into 384 plates (Optiplate 384 plate) using Echo550. DMSO was used as high control, and ATP substrate buffer was used as a low control. A 1× enzyme assay buffer was prepared (Hepes, pH 7.0 25 mM, BSA 0.05%, Triton-X100 0.002%, CaCl2) 1 μM, MgCl2 10 mM, DTT 2 mM). […] OAG (1-oleoyl-2-acetyl-sn-glycerol, 25 mg/ml, Avanti 8001000) and PS (10 mg/ml, Avanti 840032P) were mixed at the ratio of 1:2. A 1× substrate solution was prepared with 1× assay buffer by 100-fold dilution. The substrate solution was sonicated on ice for 1 min. The pure ATP was added to the substrate solution (DGKα:400 μM). 5 μL of the enzyme solution were added to the 384 well plate, and the plate was spun for 1 min at 1000 rpm and incubated for 30 mins at RT. 5 μL of 1× substrate solution were added to the 384 well plate, the plate was spun and then incubated for 45 mins at RT. 10 μL ADP-Glo […] was added to stop the assay. After 60 mins at RT, 20 μL ADP-Glo Detection buffer was added as the final step. Plate was read after 45 min incubation at RT.
(§2) Data analysis was performed by calculating the […] using following the formula:
(§3) [formula] • High control (Hc): DMSO/DGKα(DGKζ)/Substrate/ATP/ADP-Glo • Low Control (Lc): ATP/ADP-Glo
Background: ADP-Glo turns the ADP formed in a reaction into a luminescent signal.

The next test addresses T1, DGKζ (Homo sapiens, UniProt Q13574).
T1 construct: purchased Carna 12-110
In words: DGKζ biochemical assay (ADP-Glo). The conditions noted are these: read-out: DGK ζ IC50. As to the method:
as §1, §2, §3

Molecules are shown by their SMILES.

DGKα, sequence (P23743 whole entry): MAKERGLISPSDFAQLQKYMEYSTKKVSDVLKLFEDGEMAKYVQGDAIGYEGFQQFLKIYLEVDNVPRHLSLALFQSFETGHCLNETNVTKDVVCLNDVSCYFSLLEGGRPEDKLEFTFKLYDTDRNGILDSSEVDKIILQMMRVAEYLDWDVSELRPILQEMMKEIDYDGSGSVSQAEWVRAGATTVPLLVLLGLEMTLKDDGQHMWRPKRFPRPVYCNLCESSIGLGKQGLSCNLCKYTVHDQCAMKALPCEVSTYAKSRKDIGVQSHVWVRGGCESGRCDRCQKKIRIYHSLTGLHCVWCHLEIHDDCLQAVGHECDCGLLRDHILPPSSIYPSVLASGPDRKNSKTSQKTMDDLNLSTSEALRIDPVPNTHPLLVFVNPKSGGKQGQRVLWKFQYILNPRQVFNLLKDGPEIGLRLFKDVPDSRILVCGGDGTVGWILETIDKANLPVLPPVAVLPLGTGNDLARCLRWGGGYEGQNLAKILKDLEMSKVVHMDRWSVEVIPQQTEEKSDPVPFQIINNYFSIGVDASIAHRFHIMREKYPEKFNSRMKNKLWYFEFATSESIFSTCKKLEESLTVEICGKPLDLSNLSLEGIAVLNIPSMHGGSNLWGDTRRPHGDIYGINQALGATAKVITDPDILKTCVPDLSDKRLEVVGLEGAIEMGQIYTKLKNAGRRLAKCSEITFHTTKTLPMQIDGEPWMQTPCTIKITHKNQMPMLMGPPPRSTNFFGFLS
T1 sequence (Q13574 1-929 isoform Q13574-4): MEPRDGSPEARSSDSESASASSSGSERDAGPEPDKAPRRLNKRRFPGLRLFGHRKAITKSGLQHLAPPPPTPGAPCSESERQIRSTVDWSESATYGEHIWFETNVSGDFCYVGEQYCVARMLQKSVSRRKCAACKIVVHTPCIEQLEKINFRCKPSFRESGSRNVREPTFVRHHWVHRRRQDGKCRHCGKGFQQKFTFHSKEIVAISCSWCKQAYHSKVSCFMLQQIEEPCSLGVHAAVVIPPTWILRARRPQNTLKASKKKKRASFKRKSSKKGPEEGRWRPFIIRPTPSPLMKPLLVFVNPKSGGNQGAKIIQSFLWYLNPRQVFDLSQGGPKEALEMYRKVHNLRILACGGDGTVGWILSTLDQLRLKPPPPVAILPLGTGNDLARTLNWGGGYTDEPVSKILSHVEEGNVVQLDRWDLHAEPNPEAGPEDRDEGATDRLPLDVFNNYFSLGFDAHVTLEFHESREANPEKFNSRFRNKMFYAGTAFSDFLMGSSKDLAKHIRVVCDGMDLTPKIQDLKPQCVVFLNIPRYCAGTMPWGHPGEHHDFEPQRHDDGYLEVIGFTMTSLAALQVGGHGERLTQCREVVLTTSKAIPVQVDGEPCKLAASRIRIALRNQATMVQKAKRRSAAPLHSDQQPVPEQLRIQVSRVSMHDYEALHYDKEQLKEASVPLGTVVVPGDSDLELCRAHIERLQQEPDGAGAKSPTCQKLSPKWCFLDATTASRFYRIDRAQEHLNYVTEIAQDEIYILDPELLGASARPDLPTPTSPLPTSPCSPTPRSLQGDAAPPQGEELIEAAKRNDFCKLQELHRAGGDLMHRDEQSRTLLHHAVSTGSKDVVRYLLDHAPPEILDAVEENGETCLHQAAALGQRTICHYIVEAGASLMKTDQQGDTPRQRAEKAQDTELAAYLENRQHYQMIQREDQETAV

Turning to `COc1cc(N(CC2CC2)[C@H]2CC[C@@H](N(C)c3c(C#N)c(=O)n(C)c4ccc(Cl)nc34)CC2)ccc1F` [Example 32, cis-6-chloro-4-((4-((cyclopropylmethyl)(4-fluoro-3-methoxyphenyl)amino)cyclohexyl)(methyl)amino)-1-methyl-2-oxo-1,2-dihydro-1,5-naphthyridine-3-carbonitrile], the figures for the IC50 on DGKα and at DGKζ were 0.01 to 0.1 µM and no less than 1 µM, respectively.

For the compound `Cc1cc2c(cc1N(CC1CCC1)[C@H]1CC[C@H](N(C)c3c(C#N)c(=O)n(C)c4ccc(Cl)nc34)CC1)OCO2` [Example 145, trans-6-chloro-4-((4-((cyclobutylmethyl)(6-methylbenzo[d][1,3]dioxol-5-yl)amino)cyclohexyl) (methyl)amino)-1-methyl-2-oxo-1,2-dihydro-1,5-naphthyridine-3-carbonitrile], the 50% inhibitory concentration (IC50) on DGKα and on DGKζ was no less than 1 µM each time.

With `Cn1c(=O)c(C#N)c(N(C)[C@H]2CC[C@@H](N(CC3CC3)c3ccc(F)c(F)c3)CC2)c2nc(C#N)ccc21` [Example 60, cis-8-((4-((cyclopropylmethyl)(3,4-difluorophenyl)amino)cyclohexyl)(methyl)amino)-5-methyl-6-oxo-5,6-dihydro-1,5-naphthyridine-2,7-dicarbonitrile], the results for the IC50 at DGKα and at DGKζ were 0.1 to 1 µM and 0.01 to 0.1 µM, respectively.

Consider `Cc1cc(F)ccc1N(CC1CC(F)(F)C1)[C@H]1CC[C@H](N(C)c2c(C#N)c(=O)n(C)c3ccc(C#N)nc23)CC1` [Example 178, trans-8-((-4-(((3,3-difluorocyclobutyl)methyl)(4-fluoro-2-methylphenyl)amino)cyclohexyl)(methyl)amino)-5-methyl-6-oxo-5,6-dihydro-1,5-naphthyridine-2,7-dicarbonitrile], for which the IC50 at DGKα and at DGKζ was 0.1 to 1 µM each time.

As to `COc1cc(F)ccc1N(C1CC1)[C@H]1CC[C@@H](N(C)c2cc(=O)n(C)c3ccc(C#N)nc23)CC1` [Example 3W, cis-8-[[4-(N-Cyclopropyl-4-fluoro-2-methoxy-anilino)cyclohexyl]-methyl-amino]-5-methyl-6-oxo-1,5-naphthyridine-2-carbonitrile], the IC50 at DGKα and at DGKζ was 0.1 to 1 µM in each case.

Regarding `COc1cc(N(CC2CC2)[C@H]2CC[C@H](N(C)c3c(C#N)c(=O)n(C)c4ccc(Cl)nc34)CC2)cc(F)c1F` [Example 85], the values for the IC50 at DGKα and on DGKζ were less than 0.01 µM and no less than 1 µM, respectively.

Take `COc1cccc(N(CC2CC2)[C@H]2CC[C@H](N(C)c3c(C#N)c(=O)n(C)c4cccnc34)CC2)c1` [Example 13, trans-4-((4-((cyclopropylmethyl)(3-methoxyphenyl)amino)cyclohexyl)(methyl)amino)-1-methyl-2-oxo-1,2-dihydro-1,5-naphthyridine-3-carbonitrile]: the IC50 at DGKα was 0.01 to 0.1 µM; at DGKζ, no less than 1 µM.

On to `Cn1c(=O)c(C#N)c(N(C)[C@H]2CC[C@@H](N(CC3CC3)c3ccc(Cl)cc3)CC2)c2nc(C#N)ccc21` [Example 35, cis-8-((4-((4-chlorophenyl)(cyclopropylmethyl)amino)cyclohexyl)(methyl)amino)-5-methyl-6-oxo-5,6-dihydro-1,5-naphthyridine-2,7-dicarbonitrile], for which the figures for the IC50 on DGKα and on DGKζ were less than 0.01 µM and no less than 1 µM, respectively.

For the compound `Cc1cc(F)ccc1N(CC1CC1)[C@H]1CC[C@H](N(C)c2cc(=O)n(C)c3ccc(C#N)nc23)CC1` [Example 72, trans-8-((4-((cyclopropylmethyl)(4-fluoro-2-methylphenyl)amino)cyclohexyl)(methyl)amino)-5-methyl-6-oxo-5,6-dihydro-1,5-naphthyridine-2-carbonitrile], the IC50 at DGKα was no less than 1 µM; at DGKζ, 0.1 to 1 µM.

As for `COc1cc(N(CC2CC2)[C@H]2CC[C@H](N(C)c3c(C#N)c(=O)n(C)c4ccc(C#N)nc34)CC2)cc(OC)c1F` [Example 115, trans-8-((-4-((cyclopropylmethyl)(4-fluoro-3,5-dimethoxyphenyl)amino)cyclohexyl)(methyl)amino)-5-methyl-6-oxo-5,6-dihydro-1,5-naphthyridine-2,7-dicarbonitrile], the IC50 on DGKα and on DGKζ was 0.1 to 1 µM throughout.

For the compound `Cn1c(=O)c(C#N)c(N(C)[C@H]2CC[C@H](N(c3ccccc3)C3CC3)CC2)c2nc(Cl)ccc21` [Example 3C, trans-6-Chloro-4-((4-(cyclopropyl(phenyl)amino)cyclohexyl)(methyl)amino)-1-methyl-2-oxo-1,2-dihydro-1,5-naphthyridine-3-carbonitrile], the IC50 was 0.01 to 0.1 µM on DGKα and no less than 1 µM at DGKζ.

`Cn1c(=O)c(C#N)c(N2CCC(N(CC3CC3)c3ccccc3O)CC2)c2nc(Cl)ccc21` [Example 1E, 6-Chloro-4-(4-((cyclopropylmethyl)(2-hydroxyphenyl)amino)piperidin-1-yl)-1-methyl-2-oxo-1,2-dihydro-1,5-naphthyridine-3-carbonitrile]: the IC50 at DGKα is 0.01 to 0.1 µM; on DGKζ, no less than 1 µM.

Consider `Cc1c(F)cccc1N(CC1CC1)[C@H]1CC[C@H](N(C)c2c(C#N)c(=O)n(C)c3ccc(Cl)nc23)CC1` [Example 105, trans-6-chloro-4-((4-((cyclopropylmethyl)(3-fluoro-2-methylphenyl)amino)cyclohexyl)(methyl)amino)-1-methyl-2-oxo-1,2-dihydro-1,5-naphthyridine-3-carbonitrile], for which the results for the IC50 on DGKα and at DGKζ were no less than 1 µM and 0.1 to 1 µM, respectively.

In the case of `Cn1c(=O)c(C#N)c(N(C)[C@H]2CC[C@H](N(CC3CC3)c3ccc(F)c(OC4CC4)c3)CC2)c2nc(C#N)ccc21` [Example 135, trans-8-((-4-((3-cyclopropoxy-4-fluorophenyl) (cyclopropylmethyl)amino)cyclohexyl)(methyl)amino)-5-methyl-6-oxo-5,6-dihydro-1,5-naphthyridine-2,7-dicarbonitrile], the IC50 at DGKα and on DGKζ was 0.01 to 0.1 µM throughout.

For `Cc1[nH]c2ccccc2c1C(=O)N[C@H]1CC[C@@H](N(CC2COC2)c2ccccc2)CC1` [Example 4D, cis-2-Methyl-N-(4-((oxetan-3-ylmethyl)(phenyl)amino)cyclohexyl)-1H-indole-3-carboxamide], the IC50 at DGKα and on DGKζ was no less than 1 µM throughout.

For `Cn1c(=O)cc(N(C)[C@H]2CC[C@H](N(CC3CC3)c3ccc(F)c(OC(F)F)c3)CC2)c2nc(C#N)ccc21` [Example 80], the IC50 on DGKα and on DGKζ was no less than 1 µM in each case.

On to `Cn1c(=O)c(C#N)c(N(C)[C@H]2CC[C@@H](N(CC3CC3)c3cc(F)cc(F)c3)CC2)c2nc(C#N)ccc21` [Example 81], for which the IC50 at DGKα and at DGKζ was 0.01 to 0.1 µM in each case.

Regarding `COc1cc(N(CC2CC2)[C@H]2CC[C@@H](N(C)c3cc(=O)n(C)c4ccc(C#N)nc34)CC2)ccc1F` [Example 38, cis-8-((4-((cyclopropylmethyl)(4-fluoro-3-methoxyphenyl)amino)cyclohexyl)(methyl)amino)-5-methyl-6-oxo-5,6-dihydro-1,5-naphthyridine-2-carbonitrile], the IC50 at DGKα and at DGKζ was 0.1 to 1 µM throughout.

Regarding `COc1cc(F)ccc1N(C)[C@H]1CC[C@@H](N(C)c2c(C#N)c(=O)n(C)c3ccc(C#N)nc23)CC1` [Example 64], the IC50 on DGKα and at DGKζ was 0.01 to 0.1 µM each time.

Turning to `Cc1ccc(F)cc1N(CC1CC1)[C@H]1CC[C@H](N(C)c2c(C#N)c(=O)n(C)c3ccc(C#N)nc23)CC1` [Example 117, trans-8-((4-((cyclopropylmethyl)(5-fluoro-2-methylphenyl)amino)cyclohexyl)(methyl)amino)-5-methyl-6-oxo-5,6-dihydro-1,5-naphthyridine-2,7-dicarbonitrile], the figures for the IC50 at DGKα and at DGKζ were no less than 1 µM and 0.01 to 0.1 µM, respectively.

In the case of `COc1cccc(N(CC2CC2)[C@H]2CC[C@H](N(C)c3cc(=O)n(C)c4ccc(C#N)nc34)CC2)c1` [Example 14, trans-8-((4-((cyclopropylmethyl)(3-methoxyphenyl)amino)cyclohexyl)(methyl)amino)-5-methyl-6-oxo-5,6-dihydro-1,5-naphthyridine-2-carbonitrile], the IC50 on DGKα and on DGKζ was no less than 1 µM throughout.

As to `Cc1ccc(N(CC2CC2)[C@H]2CC[C@H](N(C)c3c(C#N)c(=O)n(C)c4ccc(C#N)nc34)CC2)cc1` [Example 128, trans-8-((-4-((cyclopropylmethyl)(p-tolyl)amino)cyclohexyl)(methyl)amino)-5-methyl-6-oxo-5,6-dihydro-1,5-naphthyridine-2,7-dicarbonitrile], the IC50 on DGKα and at DGKζ was 0.1 to 1 µM in each case.

On to `Cn1c(=O)cc(N(C)[C@H]2CC[C@@H](N(CC3CC3)c3ccc(F)c(OC(F)F)c3)CC2)c2nc(C#N)ccc21` [Example 84], for which the half-maximal inhibitory concentration (IC50) on DGKα lay within 0.01 to 0.1 µM; on DGKζ, 0.1 to 1 µM.
